This is an account of results in article PMC5642494 (Oncotarget, 2017).

A word on the EC50: it is the concentration that produces a half-maximal response. Usually IC50 stands for the concentration that gives 50% inhibition.

One test deals with EFM-19 cells. The test is described as follows: Ki-67 protein expression, EFM-19. The conditions noted are these: Homo sapiens, 2 DT, read-out: EC50 Ki-67 levels. In kind it is cell-based. The protocol: (§1) Relative IC50/EC50 values were determined by curve fitting to a four parameter logistic equation: Y = bottom + ((top-bottom)/ (1+exp(HillSlope*(X – LnIC50)), where X is the natural log of dose/concentration, Y is response, decreasing as X increases, top and bottom are plateaus in the same units as Y, lnIC50 is the natural log of potency, in the same log units as X, and HillSlope measures the steepness of the curve. Data were plotted using GraphPad Prism.
(§2) After 72 hours, cells were stained with an anti-FOXM1 antibody and a secondary goat anti-rabbit IgG, Alexa Fluor® 488 conjugate; nuclei were stained with propidium iodide (PI). Alternatively, for assessment of Ki-67 levels, cells were treated for 2 DT and then stained with Ki-67 and a secondary goat anti-rabbit IgG, Alexa Fluor® 488 conjugate. Plates were read in an Acumen Explorer Ex3 (TTP Labtech) using Cellista software and the percentages of FOXM1 positive and Ki-67 positive cells were calculated over the background signal. Data were normalized in Excel using the mean value obtained from treatment with 2 µM BEZ235 as the minimum and the mean value obtained from treatment with 0.2% DMSO as the maximum.

Test [1] deals with MCF7 cells. Description: Annexin V/PI flow cytometry, MCF7. In kind it is cell-based, human. Particulars: 3 DT (untreated 11.1%). The protocol: Annexin V/PI staining was performed following the vendor’s specifications in MCF7 and MDA-MB-361 cells. […] Raw data were analyzed with FlowJo X software. Events were gated for debris exclusion and singlets selection. A minimum of 10,000 cells were analyzed per sample.
On the technique in general: In flow cytometry, cells or beads pass a laser one at a time.

The test system of a further test is FOXM1. The test is described as follows: FOXM1 protein expression, EFM-19. In kind it is cell-based. Particulars: Homo sapiens, 1 DT, read-out: IC50 reduction in FOXM1 positive cells. The protocol: as §1, §2
For a further test, the system named is H3K9me3. Description: Hypermethylation of histone H3 at lysine 9 (H3K9me3), MCF7. The test is classed as cell-based. Particulars: Homo sapiens, 2 DT, n = 2, read-out: EC50 H3K9me3 levels. The protocol: as §1
BioResearch) where indicated; the dates of acquisition and in an Acumen Explorer Ex3 (TTP Labtech), raw data testing are listed in parentheses: ZR-75-1; T-47D; MDA- were analyzed with Cellista software and then further MB-468; HCC70; BT-549; BT-20; MDA-MB-231; MDA- normalized in Excel against the values obtained for cells MB-175-VII, HCC-1937; MDA-MB-415. treated with 2 µM BEZ235, or vehicle (0.2% v/v DMSO); data were graphed using GraphPad Prism®. Images were SA-β-galactosidase immunocytochemical labeling taken by fluorescent microscopy using a Leica DMiL. […]
SA-β-gal Cell samples were lysed after treatment with expression was determined using the Senescence Cells 100 µL lysis buffer and transferred to a 96-well plate. […]
(BSA) (Invitrogen #15260-037) for 1 hour at 25°C. EdU Samples were analyzed by LC─MS/MS under the detection was performed using the Click-iT High Content conditions described below. […]

A further test concerns the target CDK4/cyclin D1 complexes. Also noted: method as in PMID 24919854. Particulars: cell-free; read-out: Ki^ATP CDK4/cyclin D1; cited from earlier work.
In a further test the test system is pCTD_s2 or MCL1. Description: Immunoblotting of CDK9-dependent biomarkers in ZR-75-1, T-47D and MCF7 cells. Particulars: MCF7, T-47D, ZR-75-1 cells; 24 hours; highest concentration (20 µM). In kind it is cell-based, human. The protocol: Protein lysates were prepared from the cells and analyzed for the expression of various biomarkers by immunoblotting. The biomarkers included phosphor-Rb at serines 807/811,phosphorylation of serine 2 on the C-terminal repeat domain on RNA polymerase II (pCTD) and MCL1. Images of Western blots were cropped to denote the relevant band(s) for clarity. […] Ki-67 positive events were obtained by gating versus background signal.
Background: In western blotting, separated proteins are transferred to a membrane and probed.

The test system of test [2] is MCF7 cells. The test is described as follows: BrdU incorporation ELISA in MCF7. In kind it is cell-based. The conditions noted are these: Homo sapiens, 3 DT. The procedure:
as §1
After treatment, an ELISA for BrdU detection was performed (Roche, Cat. No. 11 669 915 001) following the vendor’s manual. Envision® (PerKinElmer) was used to measure the light emission of the samples and raw data were processed with Microsoft Excel and relative EC50 values were determined as described above. For normalization, the mean value obtained from cells treated with 2 µM […] doxorubicin (Sigma #D1515) was set as the minimum, and that obtained from treatment with the vehicle (0.2% DMSO) was set as the maximum.
On the technique in general: Incorporation of labelled thymidine or its analogues reports DNA synthesis.

On to `CCN1CCN(Cc2ccc(Nc3ncc(F)c(-c4cc(F)c5nc(C)n(C(C)C)c5c4)n3)nc2)CC1` [abemaciclib, Abemaciclib], for which the EC50 in the test with EFM-19 cells came out at 16.7 nM; in the test with H3K9me3, 340 ± 16 nM; in the test with MCF7 cells [2], 178 nM. Besides, the “cells positive for annexin V” value in the test with MCF7 cells [1] (0.5 µM) stood at 41.4%; with MCF7 cells [1] (2 µM) it was 66.7%. Further, the IC50 with FOXM1 came to 8 nM. Moreover, the Ki at CDK4/cyclin D1 complexes is 0.6 nM. Also, the “levels of pCTD_s2 or MCL1” value in the test with pCTD_s2 or MCL1 was “no changes were observed”.
